Measurements reported in patent publication US11564394B2, “Distorted gold (I)-phosphine complexes and methods for use as antifungal agents” (University of Kentucky Research Foundation, priority 2019, dated 2023).
Values after ≈ are worked out from the molar mass of the structure shown. Values joined by “and” are separate entries in the source; they are usually repeats but may differ in a detail not shown here. Identical values can stand only once. Like-named read-outs stand apart in the source and are kept apart here.

Key:
[1] = test system: C. albicans ATCC MYA-1003(R) (strain A); type: cell-based, Candida albicans; settings: strain A = C. albicans ATCC MYA-1003(R); MIC-0; 48 h at 35° C.
[2] = test system: C. albicans ATCC MYA-2310(S) (strain D); assay: MIC determination (broth microdilution); type: cell-based, Candida albicans; settings: strain D = C. albicans ATCC MYA-2310(S); MIC-0; 48 h; listed as printed beside letter E
[3] = test system: C. albicans ATCC MYA-2876(S) (strain E); assay: MIC determination (broth microdilution); type: cell-based, Candida albicans; settings: strain E = C. albicans ATCC MYA-2876(S); MIC-0; 48 h; listed as printed beside letter F
[4] = test system: C. albicans ATCC 64124(R) (strain F); type: cell-based, Candida albicans; settings: strain F = C. albicans ATCC 64124(R); MIC-0; 48 h; listed as printed beside letter G
[5] = test system: C. parapsilosis ATCC 22019 (strain J); assay: MIC determination (broth microdilution); type: cell-based; settings: strain J = C. parapsilosis ATCC 22019; MIC-0; 48 h; listed as printed beside letter K
[6] = test system: C. auris AR Bank # 0384 (strain K); assay: MIC determination (broth microdilution); type: cell-based, Candida auris; settings: strain K = C. auris AR Bank # 0384; MIC-0; 48 h (CAS read at 24 h); Table 1; also in Table 2
[7] = test system: C. neoformans CN3 (strain P); assay: MIC determination (broth microdilution); type: cell-based, Cryptococcus neoformans; settings: MIC-0, 72 h at 35° C.
[8] = test system: A. terreus ATCC MYA-3633 (strain R); type: cell-based, Aspergillus terreus; settings: strain R = A. terreus ATCC MYA-3633; MIC-0; 72 h at 35° C.
[9] = test system: A. flavus ATCC MYA-3631 (strain S); assay: MIC determination (broth microdilution); type: cell-based, Aspergillus flavus; settings: strain S = A. flavus ATCC MYA-3631; MIC-0; 72 h at 35° C.
[10] = test system: C. auris AR Bank # 0381 (strain I); assay: MIC determination (broth microdilution); type: cell-based, Candida auris; settings: strain I = C. auris AR Bank # 0381; MIC-0; 48 h (CAS read at 24 h)
[11] = test system: C. auris AR Bank # 0386 (strain V); assay: MIC determination (broth microdilution); type: cell-based, Candida auris; settings: strain V = C. auris AR Bank # 0386; MIC-0; 48 h (CAS read at 24 h)
[12] = test system: C. auris AR Bank # 0387 (strain VI); assay: MIC determination (broth microdilution); type: cell-based, Candida auris; settings: strain VI = C. auris AR Bank # 0387; MIC-0; 48 h (CAS read at 24 h)
[13] = test system: C. auris AR Bank # 0388 (strain VII); assay: MIC determination (broth microdilution); type: cell-based, Candida auris; settings: strain VII = C. auris AR Bank # 0388; MIC-0; 48 h (CAS read at 24 h)
[14] = test system: C. albicans ATCC 10231 (strain B) biofilm; assay: Prevention of biofilm formation (XTT); type: cell-based, Candida albicans; settings: treated at 0 h, 90% decrease in metabolic activity (XTT)
[15] = test system: C. glabrata ATCC 2001 (strain H) biofilm; assay: Prevention of biofilm formation (XTT); type: cell-based, Candida glabrata; settings: treated at 0 h
[16] = test system: C. auris AR Bank # 0390 (strain L) biofilm; type: cell-based, Candida auris; settings: treated at 0 h, XTT
[17] = test system: C. albicans ATCC 10231 (strain B) pre-formed biofilm; assay: Disruption of pre-formed biofilm (XTT); type: cell-based, Candida albicans; settings: for Pre-formed biofilm SMIC90: biofilm treated at 24 h, XTT
[18] = test system: fungal strains (Candida spp., Cryptococcus spp., Aspergillus spp., Fusarium spp.); assay: MIC determination, summary statements over the strain panel; type: cell-based; settings: for overall assessment as antifungals: panel of twenty fungal strains (Table 1)
[19] = test system: four mammalian cell lines (A549, BEAS-2B, HEK-293, J774A.1); assay: Mammalian cytotoxicity assays, summary over cell lines; type: cell-based; settings: for cell survival: at 15.6 μg/mL, excluding auranofin with J774A.1; for IC50: read-out: IC50 values (range over cell lines)
Description: For cytotoxicity assays, the human embryonic kidney cell line (HEK-293) was purchased from the ATCC. The human bronchial epithelial cell line (BEAS-2B), the human lung carcinoma cell line (A549), and the mouse macrophage cell line (J774A.1) were generous gifts from Prof. David K. Orren (University of Kentucky, Lexington, Ky.), Prof. Markos Leggas (University of Kentucky, Lexington, Ky.), and Prof. David J. Feola (University of Kentucky, Lexington, Ky.), respectively. A549, HEK-293, and BEAS-2B cells were cultured in Dulbecco's Modified Eagle's Medium (DMEM, catalog #VWRL0100, VWR, Chicago, Ill.) supplemented with 10% fetal bovine serum (FBS; from ATCC) and 1% penicillin/streptomycin (from ATCC) at 37° C. with 5% CO2. The J774A.1 cells were cultured in DMEM (catalog #30-2002, ATCC, Manassas, Va.), which was also supplemented with FBS and antibiotics and grown at 37° C. with 5% CO2.
To examine whether the compounds are safe for human cells, cytotoxicity assays were done against four mammalian cell lines: HEK-293, A549, BEAS-2B, and J774A.1 cells. […] HEK-293 and J774A.1 cells were plated at 1×10^4 cells/mL while A549 and BEAS-2B were plated at 3×10^3 cells/mL. Compounds were tested in concentrations ranging from 0.06 to 15.6 μg/mL with final concentration of DMSO at 0.5% (FIG. 4A-D).

Compound | MIC [1] [µg/mL] | MIC (in parentheses) [1] [µM] | MIC [2] [µg/mL] | MIC (in parentheses) [2] [µM] | MIC [3] [µg/mL] | MIC (in parentheses) [3] [µM] | MIC [4] [µg/mL] | MIC (in parentheses) [4] [µM] | MIC [5] [µg/mL] | MIC (in parentheses) [5] [µM] | MIC [6] | MIC (in parentheses) [6] [µM] | MIC [7] [µg/mL] | MIC (in parentheses) [7] [µM] | MIC [8] [µg/mL] | MIC (in parentheses) [8] [µM] | MIC [9] [µg/mL] | MIC (in parentheses) [9] [µM] | Biofilm prevention SMIC90 [14] [µg/mL] | Biofilm prevention SMIC90 [15] [µg/mL] | further results
C[C@@H]1[C@H](O)[C@@H](C)/C=C/C=C/C=C/C=C/C=C/C=C/C=C/[C@H](O[C@@H]2O[C@H](C)[C@@H](O)[C@H](N)[C@@H]2O)C[C@@H]2O[C@](O)(C[C@@H](O)C[C@@H](O)[C@H](O)CC[C@@H](O)C[C@@H](O)CC(=O)O[C@H]1C)C[C@H](O)[C@H]2C(=O)O [AmB, amphotericin B, reference compound] | 0.98 (≈ 1.06 µM) | 1.1 (≈ 1.02 µg/mL) | 7.8 (≈ 8.44 µM) | 8.4 (≈ 7.76 µg/mL) | 3.9 (≈ 4.22 µM) | 4.2 (≈ 3.88 µg/mL) | 3.9 (≈ 4.22 µM) | 4.2 (≈ 3.88 µg/mL) | 3.9 (≈ 4.22 µM) | 4.2 (≈ 3.88 µg/mL) | 1.95 µg/mL (≈ 2.11 µM) | 2.1 (≈ 1.94 µg/mL) | 0.98 (≈ 1.06 µM) | 1.1 (≈ 1.02 µg/mL) | 7.8 (≈ 8.44 µM) | 8.4 (≈ 7.76 µg/mL) | 31.3 (≈ 33.9 µM) | 33.8 (≈ 31.2 µg/mL) | 0.98 | 0.98 | MIC [10]: 1.95 µg/mL (≈ 2.11 µM); MIC (in parentheses) [10]: 2.1 µM (≈ 1.94 µg/mL); MIC [11]: 1.95 µg/mL (≈ 2.11 µM); MIC (in parentheses) [11]: 2.1 µM (≈ 1.94 µg/mL); MIC [12]: 1.95 µg/mL (≈ 2.11 µM); MIC (in parentheses) [12]: 2.1 µM (≈ 1.94 µg/mL); MIC [13]: 1.95 µg/mL (≈ 2.11 µM); MIC (in parentheses) [13]: 2.1 µM (≈ 1.94 µg/mL); Biofilm prevention SMIC90 [16]: 1.95 µg/mL; SMIC90 of pre-formed biofilm relative to MIC with planktonic cells [17]: 32 fold; Pre-formed biofilm SMIC90 [17]: 31.3 µg/mL; MIC values (range) ([18]; all filamentous fungi, Aspergillus spp. and Fusarium spp.): 7.8 to 31.3 µg/mL
bis-[1,2-bis[(2R,5R)-2,5-dimethylfphospholano]benzene]gold(1) [Compound 6] | 0.49 | 0.6 | 0.49 | 0.6 | 0.49 | 0.6 | 0.49 | 0.6 | 0.49 | 0.6 | 1.95 µg/mL | 2.3 | 0.49 | 0.6 | 3.9 | 4.6 | 7.8 | 9.2 | 0.98 | 1.95 | MIC [10]: 0.98 µg/mL; MIC (in parentheses) [10]: 1.2 µM; MIC [11]: 3.9 µg/mL; MIC (in parentheses) [11]: 4.6 µM; MIC [12]: 1.95 µg/mL; MIC (in parentheses) [12]: 2.3 µM; MIC [13]: 1.95 µg/mL; MIC (in parentheses) [13]: 2.3 µM; Biofilm prevention SMIC90 [16]: 3.9 µg/mL; SMIC90 of pre-formed biofilm relative to MIC with planktonic cells [17]: 4 fold; Pre-formed biofilm SMIC90 [17]: 3.9 µg/mL; overall assessment as antifungals [18]: great promise; cell survival [19]: no cell survival
CC(=O)OC[C@H]1O[C@@H]([S-])[C@H](OC(C)=O)[C@@H](OC(C)=O)[C@@H]1OC(C)=O.CCP(CC)CC.[Au+] [Auranofin, auranofin, reference compound] | > 31.3 | > 46.1 | > 31.3 | > 46.1 | > 31.3 | > 46.1 | > 31.3 | > 46.1 | > 31.3 | > 46.1 | > 31.3 µg/mL | > 46.1 | 3.9 | 5.7 | 7.8 | 11.5 | > 31.3 | > 46.1 | 7.8 | 31.3 | Biofilm prevention SMIC90 [16]: >31.3 µg/mL; Pre-formed biofilm SMIC90 [17]: 7.8 µg/mL; Pre-formed biofilm SMIC90 ([17]; listed as auranofin): the same SMIC90 as compound 4; MIC ([18]; Candida spp.): > 31.3 µg/mL; antifungal activity ([18]; Candida spp.): no antifungal activity; antifungal activity class ([18]; Candida spp.): poor (MIC ≥15.6 μg/mL (poor antifungal activity)); MIC ([18]; two Aspergillus spp.): 3.9 µg/mL and 7.8 µg/mL; antifungal activity class ([18]; two Aspergillus spp.): good (MIC = 3.9-7.8 μg/mL (good antifungal activity)); IC50 ([19]; A549, BEAS-2B, and HEK-293 cell lines): 500 to 3000 nM; cell survival [19]: no cell survival
bis-[1,2-bis[(2S,5S)-2,5-dimethylphospholano]benzene]gold(I) [Compound 4] | 0.98 | 1.2 | 0.98 | 1.2 | 0.98 | 1.2 | 0.98 | 1.2 | 0.98 | 1.2 | 3.9 µg/mL and 3.96 µg/mL | 4.6 | 0.98 | 1.2 | 1.95 | 2.3 | 7.8 | 9.2 | 3.9 | 3.9 | MIC [10]: 0.98 µg/mL; MIC (in parentheses) [10]: 1.2 µM; MIC [11]: 1.95 µg/mL; MIC (in parentheses) [11]: 2.3 µM; MIC [12]: 1.95 µg/mL; MIC (in parentheses) [12]: 2.3 µM; MIC [13]: 1.95 µg/mL; MIC (in parentheses) [13]: 2.3 µM; Biofilm prevention SMIC90 [16]: 3.9 µg/mL; SMIC90 of pre-formed biofilm relative to MIC with planktonic cells [17]: 4 fold; Pre-formed biofilm SMIC90 [17]: 7.8 µg/mL; overall assessment as antifungals [18]: great promise; antifungal activity class ([18]; two C. auris strains (K and L)): good (MIC = 3.9-7.8 μg/mL (good antifungal activity)); IC50 ([19]; BEAS-2B, HEK-293, and J774A.1): 1500 to 2000 nM; cell survival [19]: no cell survival
